How the values were obtained:
[1] = system: HCV replicon cells; experiment: HCV replicon FRET / luciferase assay (96-well plates); type: cell-based; details: Hepatitis C virus, Table 1b; HCV replicon; read-out: EC50
Procedure, shortened: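 Readout was NS3 protease cleavage of an EDANS/DABCYL FRET peptide (20 μM final) in lysed HCV replicon cells, or Renilla luciferase in reporter replicons. Background came from wells with the highest level of control protease inhibitor. EC50 marked the concentration giving 50% signal reduction.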

[2] = biological target: T1, HCV NS5B RdRp genotype 1b (Hepatitis C virus genotype 1b, UniProt Q9WMX2); experiment: Standard HCV NS5B RdRp enzyme assay; type: biochemical; details: Table 1b; HCV NS5B RdRp genotype 1b; read-out: IC50
T1 construct: The protein was expressed with an 18 amino acid C-terminal truncation to enhance the solubility; made in house; host or cells: E. coli BL21(DE3), pET21a vector
Procedure, shortened: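 Radiometric SPA measuring 3H-UMP incorporation on polyA/biotin-oligo-dT12 (6 nM/180 nM), 0.29 μM total UTP. Enzyme: NS5B 1b lacking last 18 residues, 28 nM final, 30° C for 60 min in 20 mM Hepes pH 7.5, 2.5 mM MgCl2, 2% DMSO. IC50 from seven-point curves.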

T1 sequence (Q9WMX2 2420-2992): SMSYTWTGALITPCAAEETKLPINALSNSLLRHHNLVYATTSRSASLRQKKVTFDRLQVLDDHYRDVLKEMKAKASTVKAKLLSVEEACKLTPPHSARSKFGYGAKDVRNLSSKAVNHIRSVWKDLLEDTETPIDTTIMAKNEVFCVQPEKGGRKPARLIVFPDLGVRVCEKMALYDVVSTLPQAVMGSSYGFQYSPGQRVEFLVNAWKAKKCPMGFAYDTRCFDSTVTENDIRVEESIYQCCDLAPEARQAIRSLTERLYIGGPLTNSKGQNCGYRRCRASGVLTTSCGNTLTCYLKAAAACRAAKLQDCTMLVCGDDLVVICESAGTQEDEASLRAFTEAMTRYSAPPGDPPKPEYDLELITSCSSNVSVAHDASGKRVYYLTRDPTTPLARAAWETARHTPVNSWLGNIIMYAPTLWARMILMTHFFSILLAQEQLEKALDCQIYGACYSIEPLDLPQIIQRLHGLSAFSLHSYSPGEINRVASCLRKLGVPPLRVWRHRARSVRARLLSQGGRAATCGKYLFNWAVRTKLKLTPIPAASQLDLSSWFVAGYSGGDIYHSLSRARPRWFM

Row | SMILES | EC50 [1] | IC50 [2]
1 | CNC(=O)c1c(-c2ccc(F)cc2)oc2cc(N(CCO)S(C)(=O)=O)c(-c3cccc(C(=O)NC4(c5ccccc5)CC4)c3)cc12 | < 0.25 µM | < 0.25 µM
2 | CNC(=O)c1c(-c2ccc(F)cc2)oc2cc(N(CCO)S(C)(=O)=O)c(-c3cccc(C(=O)NC4(c5ccc(F)cc5)CC4)c3)cc12 | < 0.25 µM | < 0.25 µM
3 | CNC(=O)c1c(-c2ccc(F)cc2)oc2cc(N(CCO)S(C)(=O)=O)c(-c3cccc(C(=O)NC(C)(C)c4ccc(F)cc4)c3)cc12 | < 0.25 µM | < 0.25 µM
4 | CNC(=O)c1c(-c2ccc(F)cc2)oc2ccc(-c3cc(C(=O)N4CCC5(CC4)OCc4ccccc45)ccc3Cl)cc12 | 1 to 10 µM | 1 to 10 µM
5 | CNC(=O)c1c(-c2ccc(F)cc2)oc2ccc(-c3cccc(C(=O)NC4(c5ccc(Cl)cc5)CC4)c3)cc12 | < 0.25 µM | < 0.25 µM
6 | CNC(=O)c1c(-c2ccc(F)cc2)oc2ccc(-c3cccc(C(=O)NC(C)(C)c4ccc(Cl)cc4)c3)cc12 | < 0.25 µM | < 0.25 µM
7 | CNC(=O)c1c(-c2ccc(F)cc2)oc2ccc(-c3cccc(C(=O)NC(C)(C)c4ccncc4)c3)cc12 | < 0.25 µM | < 0.25 µM
8 | CNC(=O)c1c(-c2ccc(F)cc2)oc2ccc(-c3cc(C(=O)NCC(C)C)ccc3OCCc3ccc(O)cc3)cc12 | 0.25 to 1 µM | 0.25 to 1 µM
9 | CNC(=O)c1c(-c2ccc(F)cc2)oc2ccc(-c3cc(C(=O)NCC(C)C)ccc3OCCCn3cccc3)cc12 | 0.25 to 1 µM | 1 to 10 µM
10 | CNC(=O)c1c(-c2ccc(F)cc2)oc2ccc(-c3cc(C(=O)NCC(C)C)ccc3OCCc3ccc(Cl)cc3)cc12 | > 10 µM | > 10 µM
11 | CNC(=O)c1c(-c2ccc(F)cc2)oc2ccc(-c3cc(C(=O)NCC(C)C)ccc3OCC(N)=O)cc12 | < 0.25 µM | < 0.25 µM
12 | CNC(=O)c1c(-c2ccc(F)cc2)oc2ccc(-c3cc(C(=O)NCC(C)C)ccc3OCCCN3CCOCC3)cc12 | < 0.25 µM | < 0.25 µM
13 | CNC(=O)c1c(-c2ccc(F)cc2)oc2ccc(-c3cc(C(=O)NCC(C)C)ccc3OCCN3CCOCC3)cc12 | < 0.25 µM | < 0.25 µM
14 | CNC(=O)c1c(-c2ccc(F)cc2)oc2ccc(-c3cc(C(=O)NCC(C)C)ccc3OCc3ccccn3)cc12 | < 0.25 µM | < 0.25 µM
15 | CNC(=O)c1c(-c2ccc(F)cc2)oc2ccc(-c3cc(C(=O)NCC(C)C)ccc3OCCN3CCCC3)cc12 | < 0.25 µM | < 0.25 µM
16 | CNC(=O)c1c(-c2ccc(F)cc2)oc2ccc(-c3cc(C(=O)NCC(C)C)ccc3OCCN3CCCCC3)cc12 | < 0.25 µM | 0.25 to 1 µM
17 | CNC(=O)c1c(-c2ccc(F)cc2)oc2ccc(-c3cc(C(=O)NCC(C)C)ccc3OCCc3ccccn3)cc12 | < 0.25 µM | 0.25 to 1 µM
18 | CNC(=O)c1c(-c2ccc(F)cc2)oc2ccc(-c3cc(C(=O)NCC(C)C)ccc3OCc3c[nH]c(C)n3)cc12 | < 0.25 µM | < 0.25 µM
19 | CNC(=O)c1c(-c2ccc(F)cc2)oc2ccc(-c3cc(C(=O)NCC(C)C)ccc3OCc3ccc(C(F)(F)F)cn3)cc12 | > 10 µM | > 10 µM
20 | CNC(=O)c1c(-c2ccc(F)cc2)oc2ccc(-c3cc(C(=O)NCC(C)C)ccc3OCc3c[nH]cn3)cc12 | < 0.25 µM | < 0.25 µM
21 | CNC(=O)c1c(-c2ccc(F)cc2)oc2ccc(-c3cc(C(=O)NCC(C)C)ccc3OCc3cn(C)cn3)cc12 | 0.25 to 1 µM | 1 to 10 µM
22 | CCCC#CCOc1ccc(C(=O)NCC(C)C)cc1-c1ccc2oc(-c3ccc(F)cc3)c(C(=O)NC)c2c1 | 1 to 10 µM | 1 to 10 µM
23 | CNC(=O)c1c(-c2ccc(F)cc2)oc2ccc(-c3cc(C(=O)NCC(C)C)ccc3OCC(F)F)cc12 | < 0.25 µM | 0.25 to 1 µM
24 | CNC(=O)c1c(-c2ccc(F)cc2)oc2ccc(-c3cc(C(=O)NCC(C)C)ccc3OCc3ccnc(Br)c3)cc12 | 0.25 to 1 µM | 0.25 to 1 µM
25 | CNC(=O)c1c(-c2ccc(F)cc2)oc2ccc(-c3cc(C(=O)NCC(C)C)ccc3OCCO)cc12 | < 0.25 µM | < 0.25 µM
26 | CNC(=O)c1c(-c2ccc(F)cc2)oc2ccc(-c3cc(C(=O)NCC(C)C)ccc3OCCc3c(C)n[nH]c3C)cc12 | < 0.25 µM | < 0.25 µM
27 | CNC(=O)c1c(-c2ccc(F)cc2)oc2ccc(-c3cccc(C(=O)NC(C)(C)c4cccnc4)c3)cc12 | < 0.25 µM | < 0.25 µM
28 | CNC(=O)c1c(-c2ccc(F)cc2)oc2cc(N(CCO)S(C)(=O)=O)c(-c3cc(C(=O)NC4(c5ccccc5)CC4)ccc3F)cc12 | < 0.25 µM | < 0.25 µM
29 | CNC(=O)c1c(-c2ccc(F)cc2)oc2ccc(-c3cc(C(=O)NCC(C)C)ccc3OCCc3c[nH]c4ccccc34)cc12 | 1 to 10 µM | 1 to 10 µM
30 | CNC(=O)c1c(-c2ccc(F)cc2)oc2ccc(-c3cc(C(=O)NCC(C)C)ccc3OCCCN3CCN(C)CC3)cc12 | < 0.25 µM | < 0.25 µM

Source: US8309558B2, “Compounds for the treatment of hepatitis C” (Bristol-Myers Squibb Company, priority 2008, dated 2012)
